Columns and labels:
MOPr [1] = biological target: T1, MOPr (Homo sapiens, UniProt P35372); assay: [35S]GTPγS binding, CHO membranes, standard DAMGO; assay type: biochemical; settings: Ke/nM MOPr, antagonist Ke versus DAMGO, single agonist concentration
KOPr [2] = biological target: T2, KOPr (Homo sapiens, UniProt P41145); assay: [35S]GTPγS binding, CHO membranes, standard U69593; assay type: biochemical; settings: for Kd: Ke/nM KOPr, antagonist Ke versus U69593, single agonist concentration; for fold more potent as KOPr antagonist than 17-methyl equivalent: ratio of Ke: 5k vs 5b, 5i vs 5e
T2 sequence (P41145 whole entry): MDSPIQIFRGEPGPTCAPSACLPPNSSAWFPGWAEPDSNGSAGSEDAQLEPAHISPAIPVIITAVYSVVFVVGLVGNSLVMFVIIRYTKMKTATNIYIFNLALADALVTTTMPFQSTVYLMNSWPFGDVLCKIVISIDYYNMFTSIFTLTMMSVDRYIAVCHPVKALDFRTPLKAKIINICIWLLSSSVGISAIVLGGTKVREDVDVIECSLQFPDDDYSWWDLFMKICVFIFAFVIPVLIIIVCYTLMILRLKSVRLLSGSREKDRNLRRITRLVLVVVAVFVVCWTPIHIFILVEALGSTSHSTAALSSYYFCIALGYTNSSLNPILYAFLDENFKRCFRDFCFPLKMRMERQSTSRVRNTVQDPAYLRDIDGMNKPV

DOPr [3] = biological target: T3, DOPr (Homo sapiens, UniProt P41143); assay: [35S]GTPγS binding, CHO membranes, standard DPDPE; assay type: biochemical; settings: for Kd: Ke/nM DOPr, antagonist Ke versus DPDPE, single agonist concentration
T3 sequence (P41143 whole entry): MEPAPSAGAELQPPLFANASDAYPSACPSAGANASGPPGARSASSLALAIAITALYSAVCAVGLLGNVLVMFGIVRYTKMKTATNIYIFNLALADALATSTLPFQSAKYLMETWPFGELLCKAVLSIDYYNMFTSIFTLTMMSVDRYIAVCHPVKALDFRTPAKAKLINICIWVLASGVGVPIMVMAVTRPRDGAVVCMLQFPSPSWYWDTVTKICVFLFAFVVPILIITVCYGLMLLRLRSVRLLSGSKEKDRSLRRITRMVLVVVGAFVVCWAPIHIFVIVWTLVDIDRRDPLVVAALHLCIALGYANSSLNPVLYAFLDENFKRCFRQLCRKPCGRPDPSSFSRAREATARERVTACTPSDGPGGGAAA

MOPr [4] = assay: Guinea pig ileum; settings: 7b Ke in GPI (ref 8) vs 5k Ke in [35S]GTPγS assay
MOPr [5] = settings: read-out: Ke MOPr antagonist activity in GPI assay; GPI isolated tissue; cited from earlier work
DOPr [6] = settings: cited from earlier work
KOPr [7] = biological target: T2, KOPr; assay type: binding
DOPr [8] = biological target: T3, DOPr; assay type: binding
MOPr [9] = biological target: T1, MOPr; assay type: binding
MOPr [10] = settings: read-out: EC50 MOPr partial agonist activity in [35S]GTPγS assay; cited from earlier work

T1 sequence (P35372 whole entry): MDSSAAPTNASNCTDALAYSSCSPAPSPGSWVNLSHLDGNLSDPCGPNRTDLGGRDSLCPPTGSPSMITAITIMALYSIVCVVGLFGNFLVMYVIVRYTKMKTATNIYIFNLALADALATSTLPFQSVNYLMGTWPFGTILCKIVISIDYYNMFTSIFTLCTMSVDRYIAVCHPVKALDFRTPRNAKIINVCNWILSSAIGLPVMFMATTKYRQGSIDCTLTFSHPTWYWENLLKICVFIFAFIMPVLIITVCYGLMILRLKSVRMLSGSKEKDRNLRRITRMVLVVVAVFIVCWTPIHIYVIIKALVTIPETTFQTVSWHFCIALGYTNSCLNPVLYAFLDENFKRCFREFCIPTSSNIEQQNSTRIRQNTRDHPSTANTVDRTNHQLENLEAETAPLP

Structure (SMILES) | Kd (MOPr [1]) | Kd (KOPr [2]) | Kd (DOPr [3]) | also measured
O=C1CCC2=C([C@@H]3Oc4c(O)ccc5c4[C@@]34CCN(CC3CC3)[C@H](C5)[C@]4(O)C2)N1Cc1ccccc1 [5k, 1′-Benzyl-17-cyclopropylmethyl-6,7-didehydro-4,5-epoxy-4′,5′-dihydro-3,14-dihydroxy-pyrido[2,3: 6,7-]morphinan-6(1H)-one] | 0.2 nM | 0.13 nM |  | fold more potent as KOPr antagonist than 17-methyl equivalent (KOPr [2]): over 160 fold
CN1CC[C@]23c4c5ccc(O)c4O[C@H]2C2=C(C[C@H](CCO)C(=O)N2Cc2ccccc2)C[C@@]3(O)[C@H]1C5 [5f] |  | 16.8 nM |  | 
O=C1CCC2=C([C@@H]3Oc4c(O)ccc5c4[C@@]34CCN(CC3CC3)[C@H](C5)[C@]4(O)C2)N1CC1CCCCC1 [5n, 1′-Cyclohexylmethyl-17-cyclopropylmethyl-6,7-didehydro-4,5-epoxy-4′,5′-dihydro-3,14-dihydroxy-pyrido[2,3: 6,7-]morphinan-6(1H)-one] | 0.27 nM | 0.48 nM |  | 
C[C@H]1CC2=C([C@@H]3Oc4c(O)ccc5c4[C@@]34CCN(CC3CC3)[C@H](C5)[C@]4(O)C2)N(Cc2ccccc2)C1=O [5h] | 0.6 nM | 2.03 nM | 0.57 nM | 
C[C@@H]1CC2=C([C@@H]3Oc4c(O)ccc5c4[C@@]34CCN(CC3CC3)[C@H](C5)[C@]4(O)C2)N(Cc2ccccc2)C1=O [5g] | 0.5 nM | 0.23 nM | 0.23 nM | 
O=C1[C@H](CCO)CC2=C([C@@H]3Oc4c(O)ccc5c4[C@@]34CCN(CC3CC3)[C@H](C5)[C@]4(O)C2)N1Cc1ccccc1 [5i] | 0.35 nM | 0.73 nM | 0.47 nM | fold more potent as KOPr antagonist than 17-methyl equivalent (KOPr [2]): 40 fold
Oc1ccc2c3c1O[C@H]1c4ncccc4C[C@@]4(O)[C@@H](C2)N(CC2CC2)CC[C@]314 [7b] |  |  |  | fold lower MOPr antagonist potency than 5k (MOPr [4]): 800 fold; Kd (MOPr [5]): 164 nM
CN1C(=O)[C@@H](CCO)CC2=C1[C@@H]1Oc3c(O)ccc4c3[C@@]13CCN(C)[C@H](C4)[C@]3(O)C2 [5d] |  | 2140 nM |  | 
Cc1[nH]c2c(c1Cc1ccccc1)C[C@@]1(O)[C@H]3Cc4ccc(O)c5c4[C@@]1(CCN3CC1CC1)[C@H]2O5 [6b] |  |  |  | DOPr antagonist selectivity over both MOPr and KOPr (DOPr [6]): 50 fold
CN1CC[C@]23c4c5ccc(O)c4O[C@H]2C2=C(CCC(=O)N2Cc2ccccc2)C[C@@]3(O)[C@H]1C5 [5b] |  | 21.3 nM |  | fold lower binding affinity at KOPr than at MOPr (KOPr [7]; ratio of Ki, KOPr vs MOPr): ~6 fold; fold lower binding affinity at DOPr than at MOPr (DOPr [8]; ratio of Ki, DOPr vs MOPr): around 3 fold; %stim DOPr (DOPr [3]; % stimulation relative to the standard DPDPE): 94%
CN1CC[C@]23c4c5ccc(O)c4O[C@H]2C2=C(C[C@@H](CCO)C(=O)N2Cc2ccccc2)C[C@@]3(O)[C@H]1C5 [5e] | 32.9 nM | 29.3 nM |  | 
O=C1[C@@H](CCO)CC2=C([C@@H]3Oc4c(O)ccc5c4[C@@]34CCN(CC3CC3)[C@H](C5)[C@]4(O)C2)N1Cc1ccccc1 [5j] | 1.62 nM | 2.22 nM | 0.93 nM | 
CN1CC[C@]23c4c5ccc(O)c4O[C@H]2c2ncccc2C[C@@]3(O)[C@H]1C5 [7a, reference compound] |  |  |  | fold lower MOPr affinity than 5b (MOPr [9]): 27 fold; fold lower KOPr affinity than 5b (KOPr [7]): 130 fold; fold lower DOPr affinity than 5b (DOPr [8]): 20 fold; EC50 (MOPr [10]): 3000 nM
CN1C(=O)[C@H](CCO)CC2=C1[C@@H]1Oc3c(O)ccc4c3[C@@]13CCN(C)[C@H](C4)[C@]3(O)C2 [5c] |  | 321 nM |  | 
CCOC(=O)Cc1c2c(n(Cc3ccccc3)c1O)[C@@H]1Oc3c(O)ccc4c3[C@@]13CCN(CC1CC1)[C@H](C4)[C@]3(O)C2 [4b] | 6.61 nM | 4.3 nM | 6.79 nM | 
CN1C(=O)CCC2=C1[C@@H]1Oc3c(O)ccc4c3[C@@]13CCN(C)[C@H](C4)[C@]3(O)C2 [5a] |  | 392 nM |  | 

From PMC4112151 (Bioorganic & medicinal chemistry, 2014)
